Measurements taken from patent US20220265614A1, “TREATMENT COMPRISING FXR AGONISTS” (Novartis AG, priority 2019, published 2022).

Columns and labels:
[1] = system: patients with biopsy-proven NASH and fibrosis stages 2-3; assay: FLIGHT-FXR (NCT02855164) Part C interim analysis at week 12; assay type: in vivo, human
Text: Prespecified endpoints assessed at week 12 included overall safety and changes in alanine aminotransferase (ALT), hepatic fat fraction (HFF), gamma glutamyl transferase (GGT), and body weight.

[2] = system: NASH patients; assay: Parts A and B of study CLJN452A2202 in NASH patients, 12 weeks
[3] = system: human hepatocytes; assay: In vitro human hepatocytes treated with FXR agonists: LDL uptake; assay type: cell-based; conditions: FIG. 5
Text: In addition, FXR agonist treatments have been associated with lipid abnormalities, including increases in peripheral LDL (Neuschwander-Tetri et al, The Lancet 2015; 385: 956-965). The reduction of the bile acid pathway by FXR agonists could lead to intracytoplasmic increase in cholesterol in the hepatocytes. Increase cholesterol in hepatocytes is associated with a counter mechanism of decrease LDL receptor on the surface of the cells (Goldstein et al Circulation. 1987 September;76(3):504-7). Such a decrease in the LDL receptor on the surface of the hepatocytes will ultimately result in an increase in circulating LDL; the phenotype observed in the clinics. […] To mitigate the increase in circulating LDL, it is proposed to administer a FXR agonist to the subjects in need thereof in the evening (e.g. from about 6 pm to about 12 pm, preferably from about 8 pm to about 11 pm, preferably around 9 pm) to reduce the impact of the FXR agonist on circulating LDL.
To mitigate the increase in peripheric LDL, we hypothesize that treating the subjects in the evening (from about 6 pm to about 12 pm, e.g. from about 8 pm to about 11 pm, preferably around 9 pm) would be reduce the impact of the drug on LDL. […]

[4] = system: NASH patients; conditions: cited from earlier work
[5] = higher doses (140 μg, 200 μg), after 12 weeks of treatment
[6] = all doses (10, 30, 60 and 90 μg), 12 weeks

Question: What does the source list for `O=C(O)c1cc(F)c2nc(N3C4CCC3CC(OCc3c(-c5ccccc5OC(F)(F)F)noc3C3CC3)C4)sc2c1` [Tropifexor, 2-[(1R,3r,5S)-3-({5-cyclopropyl-3-[2-(trifluoromethoxy)phenyl]-1,2-oxazol-4-yl}methoxy)-8-azabicyclo[3.2.1]octan-8-yl]-4-fluoro-1,3-benzothiazole-6-carboxylic acid]?
Answer: lipid changes that led to treatment discontinuation or dose reduction ([1]; 140 μg and 200 μg, 12 weeks): None; low density lipoprotein-cholesterol (LDL-C) ([1]; 140 μg and 200 μg, 12 weeks): dose-related increase; LS mean absolute change (SE) in ALT from baseline to Week 12 ([1]; 140 μg once daily, N = 50): −20.1 (4.57) U/L; LS mean absolute change (SE) in GGT from baseline to Week 12 ([1]; 140 μg once daily, N = 50): −39.2 (3.70) U/L; LS mean absolute change (SE) in body weight from baseline to Week 12 ([1]; 140 μg once daily, N = 50): −2.46 (0.38) kg; frequency of serious adverse events ([1]; 140 μg, 200 μg and placebo groups): low and comparable across groups; treatment discontinuation rate due to pruritus ([1]; 140 μg, n=1): 2%; prespecified endpoints at week 12 ([1]; 200 μg): met; LS mean absolute change (SE) in ALT from baseline to Week 12 ([1]; 200 μg once daily, N = 51): −23.6 (4.48) U/L; LS mean absolute change (SE) in GGT from baseline to Week 12 ([1]; 200 μg once daily, N = 51): −40.9 (3.62) U/L; LS mean absolute change (SE) in body weight from baseline to Week 12 ([1]; 200 μg once daily, N = 51): −3.20 (0.37) kg; treatment discontinuation rate due to pruritus ([1]; 200 μg, n=3): 6%; patients with pruritus whose events were of mild (Grade 1) severity ([1]; both Tropifexor groups (140 μg, 200 μg)): > 60%; ALT, HFF, and body weight [1, 5]: robust and dose-dependent decreases; safety and tolerability [1, 5]: good safety and tolerability; biologic activity (GGT) ([2]; 10 to 90 μg daily for 12 weeks): clear dose response; target engagement (FGF19) ([2]; 10 to 90 μg daily for 12 weeks): clear dose response; efficacy based on biomarkers ([2]; 60 and 90 μg, Week 12): anti-inflammatory and anti-steatotic efficacy; ALT compared to placebo [2, 6]: reduced; hepatic fat fraction compared to placebo [2, 6]: reduced; tolerability ([2]; up to 90 μg daily): generally well tolerated

Question: For `O=C(O)c1ccnc(N2CC(O)(c3ccc(OCc4c(-c5c(Cl)cccc5Cl)noc4C4CC4)cc3Cl)C2)c1` [cilofexor], which “LDL uptake by hepatocytes” value [3] is on record?
Answer: The value was “reduce the LDL uptake by hepatocytes in a dose dependent manner”.

Question: With `CC[C@H]1[C@@H](O)[C@@H]2[C@H](CC[C@]3(C)[C@@H]([C@H](C)CCC(=O)O)CC[C@@H]23)[C@@]2(C)CC[C@@H](O)C[C@@H]12` [obeticholic acid, 6α-ethyl-chenodeoxycholic acid] as the compound, how does the “LDL uptake by hepatocytes” value [3] read?
Answer: Its value is “reduce the LDL uptake by hepatocytes in a dose dependent manner”.

Question: What about the “adverse effects of long term administration: pruritus” value [4] of the same compound?
Answer: Its value is “most common adverse effect”.

Question: And the “lipid abnormalities: low density lipoprotein (LDL) cholesterol” value ([4]; long term administration)?
Answer: The value was “increased”.
